From patent US10266482B2, “Long-term memory inducing agent” (NATIONAL UNIVERSITY CORPORATION TOKYO MEDICAL AND DENTAL …, priority 2017, dated 2019)

Experiments:
[1] = tested on: young crickets; experiment: Olfactory associative learning test in young crickets (single-time training, memory a day after); format: in vivo, Gryllus bimaculatus
Method: Male crickets about one week old (young) or three week old (aged) following molting into adult forms were used. Each of the crickets was placed into a 100 ml beaker three days before the experiment, and deprived of water for 2-3 days to enhance the desire of taking water. As the feed, about 10 pieces of insect feed were placed into the beaker.
A 1-ml syringe was used for smell and reward associative conditioning upon learning/training. The syringe contained water as the reward while a piece of paper (3 mm×3 mm) perfumed with peppermint essence was pierced into the needle to about 1 cm from the tip thereof. In this learning/training, the filter paper on the needle was brought near the antennae of the cricket to allow it to smell for 3 seconds and then a drop of water was put out from the tip of the needle and applied to the mouth of the cricket. When the associative conditioning was conducted for four times, the conditionings were conducted at intervals of 5 minutes.
Smell preference was examined by placing each cricket into a test arena. The arena consisted of a “standby chamber” and a “test chamber”. The floor of the “test chamber” had two holes each with a diameter of 4 cm which were communicated with two smell sources. The smell source was a plastic pot containing filter paper perfumed with essence of a smell (peppermint or vanilla) and covered with a gauze lid. In the preference test, each cricket was placed into the test chamber and allowed to walk freely for 4 minutes to search for the two smell sources. Two minutes after the start of the test, a rotary board having the smell sources was rotated to reverse the positions of the vanilla and the peppermint smells. During the test, the time the cricket spent placing its mouth to the gauze of the smell source was measured as a visiting time to the smell source, and the ratio of the visiting times of the two types of smells (PI value: preference index) was calculated according to the following formula to assess the relative preference to the mint smell. PI value=Tp/(Tp+Tv)×100 • Tp: Searching time for smell associated with the reward (peppermint) • Tv: Searching time for smell not associated with the reward (vanilla)
If the preferences for the two smells are equivalent, PI will be 50. Since crickets inherently prefer vanilla smell over peppermint smell, an average PI value prior to the learning/training is usually 25-35, The preference test was conducted before and after the learning/training to examine whether preference for the smell changes due to the learning/training.
As drugs, melatonin, N(1)-acetyl-N(2)-formyl-5-methoxykynuramine (AFMK), N(1)-acetyl-5-methoxykynuramine (AMK), 6-Hydroxymelatonin (6-HM), L-kynurenine, kynuramine, 8-Bromoguanoine 3′,5′-cyclic monophosphate sodium salt (8 br-cGMP) and cycloheximide (CHX) were used. Melatonin, 6-HM, kynurenine, kynuramine and 8br-cGMP were purchased from SIGMA Aldrich, AFMK was purchased from Cayman Chemical, AMK was purchased from Toronto Research Chemicals and CHX was purchased from Wako Pure Chemical Industries. The drugs other than 8br-cGMP and CHX were first dissolved in ethanol and then diluted with physiological saline for crickets to the respective concentrations. In the administration experiment, 3 μl was administered using a 10-μl syringe to the brain via an aperture opened through a simple eye of the head.
PI values were tested before the training and a day after the training in the same group by a Wilcoxon's-test.

[2] = tested on: aged crickets; experiment: Olfactory associative learning test in aged crickets (age-related memory disorder, training four times); format: in vivo, Gryllus bimaculatus; details: 1 μM, 3 μl
Method: Male crickets about one week old (young) or three week old (aged) following molting into adult forms were used. Each of the crickets was placed into a 100 ml beaker three days before the experiment, and deprived of water for 2-3 days to enhance the desire of taking water. As the feed, about 10 pieces of insect feed were placed into the beaker. A 1-ml syringe was used for smell and reward associative conditioning upon learning/training. The syringe contained water as the reward while a piece of paper (3 mm×3 mm) perfumed with peppermint essence was pierced into the needle to about 1 cm from the tip thereof. In this learning/training, the filter paper on the needle was brought near the antennae of the cricket to allow it to smell for 3 seconds and then a drop of water was put out from the tip of the needle and applied to the mouth of the cricket. When the associative conditioning was conducted for four times, the conditionings were conducted at intervals of 5 minutes. Smell preference was examined by placing each cricket into a test arena. The arena consisted of a “standby chamber” and a “test chamber”. […] The smell source was a plastic pot containing filter paper perfumed with essence of a smell (peppermint or vanilla) and covered with a gauze lid. In the preference test, each cricket was placed into the test chamber and allowed to walk freely for 4 minutes to search for the two smell sources. Two minutes after the start of the test, a rotary board having the smell sources was rotated to reverse the positions of the vanilla and the peppermint smells. During the test, the time the cricket spent placing its mouth to the gauze of the smell source was measured as a visiting time to the smell source, and the ratio of the visiting times of the two types of smells (PI value: preference index) was calculated according to the following formula to assess the relative preference to the mint smell. PI value=Tp/(Tp+Tv)×100 • Tp: Searching time for smell associated with the reward (peppermint) • Tv: Searching time for smell not associated with the reward (vanilla) If the preferences for the two smells are equivalent, PI will be 50. Since crickets inherently prefer vanilla smell over peppermint smell, an average PI value prior to the learning/training is usually 25-35, The preference test was conducted before and after the learning/training to examine whether preference for the smell changes due to the learning/training. […] Melatonin, 6-HM, kynurenine, kynuramine and 8br-cGMP were purchased from SIGMA Aldrich, AFMK was purchased from Cayman Chemical, AMK was purchased from Toronto Research Chemicals and CHX was purchased from Wako Pure Chemical Industries. The drugs other than 8br-cGMP and CHX were first dissolved in ethanol and then diluted with physiological saline for crickets to the respective concentrations. In the administration experiment, 3 μl was administered using a 10-μl syringe to the brain via an aperture opened through a simple eye of the head. PI values were tested before the training and a day after the training in the same group by a Wilcoxon's-test.

[3] = tested on: young mice; experiment: Object recognition test for young mice (melatonin and melatonin metabolites); format: in vivo, ICR mice; details: i.p. 60 minutes after one one-minute acquisition trial, test trial 24 hours later
Method: Two-month-old male ICR mice (young mice) were used. The rearing room was kept at 22° C. at cycles of 12 hours of light period/12 hours of dark period, and feed and drinking water were given freely. All of the experiments were conducted during the latter 6 hours of the light period.
Melatonin (MEL), N(1)-acetyl-N(2)-formyl-5-methoxykynuramine (AFMK), and N(1)-acetyl-5-methoxykynuramine (AMK) were used as drugs. Melatonin was purchased from SIGMA Aldrich, AFMK was purchased from Cayman Chemical, and AMK was purchased from Toronto Research Chemicals. AFMK and AMK were diluted with physiological saline and intraperitoneally administered at a dosage of 0.01 mg/kg bw, 0.1 mg/kg bw or 1.0 mg/kg bw. MEL was diluted with physiological saline containing 1 vol % ethanol, and intraperitoneally administered at a dosage of 1.0 mg/kg bw or 5.0 mg/kg bw. As controls, physiological saline or physiological saline containing 1 vol % ethanol was intraperitoneally administered.
Test was conducted in the same manner as “5.3 Object recognition test” in Example 5.
Processing was conducted in the same manner as “5.4 Statistical processing” in Example 5.

COc1ccc(N)c(C(=O)CCNC(C)=O)c1 [Compound 1, N-[3-(2-amino-5-methoxyphenyl)-3-oxopropyl]-acetamide]
long-term memory formation a day after the training ([1]; 8 nM, 3 μl to the brain, 20 minutes after single-time training): not | sufficient concentration relative to the concentration of melatonin ([1]; 40 nM AMK versus 5 μM melatonin): 1/125 | long-term memory formation a day after the training ([1]; 40 nM, 3 μl to the brain, 20 minutes after single-time training): formed | long-term memory formation a day after the training ([1]; 0.2 μM, 3 μl to the brain, 20 minutes after single-time training): formed | long-term memory formation a day after the training ([1]; 1 μM, 3 μl to the brain, 20 minutes after single-time training): formed | long-term memory formation a day after the training ([1]; 1 μM, 3 μl, administered between 20 minutes and 80 minutes after single-time training): a long-term memory was formed | long-term memory formation a day after the training ([1]; 5 μM, 3 μl to the brain, 20 minutes after single-time training, listed as AMK): long-term memories were formed | long-term memory formation a day after the training ([1]; 5 μM, 3 μl to the brain, 20 minutes before single-time training): long-term memories were formed | administration concentration sufficient to form long-term memory ([1]; 3 μl to the brain 20 minutes after single-time training): 40 nM | timing of administration sufficient to form long-term memory ([1]; time following the single-time training, melatonin and AFMK 5 μM, AMK 1 μM): up to 80 minutes | improvement in an age-related memory disorder ([2]; 20 minutes after training for four times): improvement in an age-related memory disorder was observed | long-term memory formation a day after the training (improvement of age-related memory disorder) ([2]; 20 minutes before training for four times): a long-term memory was formed | concentration at which the effect of inducing long-term memories was found [3]: 0.1 mg/kg bw
